# Data published in US4281121A, “1,3,4-Thiadiazole-2-carboxylic acid derivatives, process for making the same and fungicidal and nematocidal compositions containing same” (Schering Aktiengesellschaft, priority 1978, dated 1981).
# Like-named read-outs stand apart in the source and are kept apart here.
# Assays:
# [1] = system: Penicillium digitatum; experiment: Inhibition of fungus in a nutrient solution: Penicillium digitatum; format: cell-based; settings: 6 days at 21-23° C.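 Further: 0 means no fungus growth and higher grades mean more surface covered.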
# [2] = system: Botrytis cinerea; experiment: Inhibition of fungus in a nutrient solution: Botrytis cinerea; format: cell-based; settings: 6 days at 21-23° C.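 Further: 0 means no fungus growth and higher grades mean more surface covered.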
# [3] = system: Alternaria solani; experiment: Inhibition of fungus in a nutrient solution: Alternaria solani; format: cell-based; settings: 6 days at 21-23° C.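 Further: 0 means no fungus growth and higher grades mean more surface covered.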
# [4] = system: Fusarium avenaceum; experiment: Inhibition of fungus in a nutrient solution: Fusarium avenaceum; format: cell-based; settings: 6 days at 21-23° C.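 Further: 0 means no fungus growth and higher grades mean more surface covered.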
# Protocol: Inhibition of fungus in a nutrient solution
# 20 ml of a nutrient solution of grape juice and water (1:1) were filled into a glass vial of a 100 ml capacity and were mixed with the pulverulent active agents which appear from the subsequent table. Thereafter, the solution was inoculated with conidia (spores) of the test fungi.
# After an incubation time of 6 days at 21° to 23° C. the fungus development on the surface of the nutrient solution was evaluated. The test fungi used were the following: Penicillium digitatum, Botrytis cinerea, Alternaria solani, Fusarium avenaceum.
# The evaluation was carried out at a scale from 0 to 5 as follows: […]
# [5] = system: Pythium ultimum; experiment: Threshold concentration test for use of the compounds against Pythium ultimum (infested soil, garden peas); format: in vivo; parameters: key to root evaluation (1-4): 4: white roots without fungous necrosis; 3: white roots, minor fungous necrosis; 2: brown roots, already more pronounced fungous necrosis; 1: heavy fungous necrosis, roots rotted; settings: for root evaluation (1-4): 3 weeks; for number of sound peas: 20 grains per dish, 3 weeks at 20-24° C.
# In short: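 Pulverulent agents at 20% concentration mixed evenly into soil heavily infested with Pythium ultimum, then garden peas ('Wunder von Kelvedon', 20 per dish) sown at once. After three weeks at 20–24 °C in a hothouse, sound peas counted and roots scored on a 1–4 scale.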
# [6] = system: Tilletia caries; experiment: Treatment of oat seeds infested with Tilletia caries (spore germination); format: in vivo
# [7] = system: Piricularia oryzae; format: in vivo; settings: concentration of active agent 0.1 (percentages); 5 days
# [8] = system: Helminthosporium gramineum; experiment: Seed treatment in open field tests for infestation by Helminthosporium gramineum (barley); format: in vivo; settings: summer barley; 50 g active agent/100 kg barley; about 3 months
# Protocol: Seed treatment in open field tests for infestation by Helminthosporium gramineum
# The active agents were used in the form of pulverulent compositions. After about 8 months in case of winter barley and after about 3 months in case of summer barley the infested plants were counted and the activity was calculated by the formula [formula]
# [9] = system: Plasmopara viticola; experiment: Prophylactic leaf treatment of grapevines in the hothouse against Plasmopara viticola; format: in vivo
# In short: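 Grapevines (5–8 leaves) sprayed to runoff with compound as 20% spray powder, then after drying inoculated on leaf undersides with sporangial suspension (~20,000/ml). Incubated at 22–24 °C, saturated humidity, 3–4 days normal humidity (30–70%), then one day saturated; activity from mean % infested leaf area per treatment.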
# [10] = system: Botrytis cinerea; experiment: Prophylactic leaf treatment of tomato plants against Botrytis cinerea; format: in vivo; settings: concentration of 0.025 of the active agent (unit not given)
# [11] = system: Venturia inaequalis; experiment: Prophylactic leaf treatment of apples in open field test against Venturia inaequalis; format: in vivo; settings: 3 weeks
# [12] = system: Helminthosporium gram; settings: about 5 weeks
# Protocol: Treatment of barley seeds infested with Helminthosporium gram
# After emergence, the plants were subjected to illumination for 12 hours per day. After about 5 weeks the infested plants were counted and the total number of plants for each test were also counted. The active agents tested were used as pulverulent compositions.
# [13] = system: Fusarium avenaceum; experiment: Threshold concentration test in case of Fusarium avenaceum (infested soil, garden peas); format: in vivo; settings: for number of sound peas: 20 grains per dish, 18 days at 20-24° C.; for root evaluation (1-4): 18 days
# In short: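 Soil heavily infested with Fusarium avenaceum was mixed uniformly with a 20% powder formulation of active agent, then sown immediately with 20 garden pea seeds ('Wunder von Kelvedon') per dish. After 18 days in a greenhouse at 20° to 24° C., sound plants were counted and roots scored on a 1–4 scale.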
# [14] = concentration of active agent 0.005 (unit not given)
# [15] = concentration of active agent 0.025 (unit not given)
# [16] = concentration of active agent 0.005 (in gram)
# [17] = concentration of active agent 0.025 (in gram)
# [18] = concentration of active agent 0.001 (unit not given)
Structure (SMILES),root evaluation (1-4) ([5]; 20 mg/l soil),number of sound peas ([5]; 20 mg/l soil),root evaluation (1-4) ([5]; 40 mg/l soil),number of sound peas ([5]; 40 mg/l soil),root evaluation (1-4) ([5]; 80 mg/l soil),number of sound peas ([5]; 80 mg/l soil),% activity ([6]; 20 g active agent per 100 kg),% activity ([6]; 50 g active agent per 100 kg),% activity [7],"% activity [9, 14]","% activity [9, 15]",% activity [10],% activity ([12]; 50 g active agent per 100 kg),"% activity [9, 18]",other results
"O=C1c2ccccc2C(=O)N1SC(Cl)(Cl)Cl [N-trichloromethylmercapto-phthalimide, reference compound]",,,,,,,,,,,,,,,fungus development on the surface of the nutrient solution (0-5) ([1]; 0.002%): 4 (30 to 60% of the surface covered by the fungus turf); fungus development on the surface of the nutrient solution (0-5) ([1]; 0.004%): 4 (30 to 60% of the surface covered by the fungus turf); fungus development on the surface of the nutrient solution (0-5) ([2]; 0.002%): 4 (30 to 60% of the surface covered by the fungus turf); fungus development on the surface of the nutrient solution (0-5) ([2]; 0.004%): 3 (10 to 30% of the surface covered by the fungus turf); fungus development on the surface of the nutrient solution (0-5) ([3]; 0.002%): 4 (30 to 60% of the surface covered by the fungus turf); fungus development on the surface of the nutrient solution (0-5) ([3]; 0.004%): 4 (30 to 60% of the surface covered by the fungus turf); fungus development on the surface of the nutrient solution (0-5) ([4]; 0.002%): 4 (30 to 60% of the surface covered by the fungus turf); fungus development on the surface of the nutrient solution (0-5) ([4]; 0.004%): 4 (30 to 60% of the surface covered by the fungus turf)
"CCCNC(=O)c1nnc(S(C)(=O)=O)s1 [5-methylsulfonyl-1,3,4-thiadiazole-2-carboxylic acid-propylamide]",4,15,4,15,4,15,100%,100%,90%,82%,95%,76%,93%,,"% activity ([6]; 10 g active agent per 100 kg): 99.5%; % activity [8]: 100%; % activity [11, 16]: 98%; % activity [11, 17]: 99.7%"
"N#Cc1c(Cl)c(Cl)c(Cl)c(C#N)c1Cl [Tetrachloroisophthalodinitrile, reference compound]",,,,,,,,,,,,,,,fungus development on the surface of the nutrient solution (0-5) ([1]; 0.002%): 3 (10 to 30% of the surface covered by the fungus turf); fungus development on the surface of the nutrient solution (0-5) ([1]; 0.004%): 2 (5 to 10% of the surface covered by the fungus turf); fungus development on the surface of the nutrient solution (0-5) ([2]; 0.002%): 5 (60 to 100% of the surface covered by the fungus turf); fungus development on the surface of the nutrient solution (0-5) ([2]; 0.004%): 4 (30 to 60% of the surface covered by the fungus turf); fungus development on the surface of the nutrient solution (0-5) ([3]; 0.002%): 5 (60 to 100% of the surface covered by the fungus turf); fungus development on the surface of the nutrient solution (0-5) ([3]; 0.004%): 5 (60 to 100% of the surface covered by the fungus turf); fungus development on the surface of the nutrient solution (0-5) ([4]; 0.002%): 4 (30 to 60% of the surface covered by the fungus turf); fungus development on the surface of the nutrient solution (0-5) ([4]; 0.004%): 3 (10 to 30% of the surface covered by the fungus turf)
"CCNC(=O)c1nnc([S+](C)[O-])s1 (centres unmarked) [5-methylsulfinyl-1,3,4-thiadiazole-2-carboxylic acid-ethylamide]",2,18,4,18,4,19,100%,100%,90%,,96%,75%,100%,,% activity ([12]; 10 g active agent per 100 kg): 98%; % activity ([12]; 20 g active agent per 100 kg): 99%
"CCCCCS(=O)(=O)c1nnc(C#N)s1 [5-pentylsulfonyl-1,3,4-thiadiazole-2-carbonitrile]",,,,,,,,90%,,,90%,86%,,,number of sound peas ([13]; 25 mg/l soil): 20; root evaluation (1-4) ([13]; 25 mg/l soil): 4; number of sound peas ([13]; 50 mg/l soil): 20; root evaluation (1-4) ([13]; 50 mg/l soil): 4; number of sound peas ([13]; 100 mg/l soil): 19; root evaluation (1-4) ([13]; 100 mg/l soil): 4
"CCS(=O)(=O)c1nnc(C(=O)N2CCCC2)s1 [5-ethylsulfonyl-1,3,4-thiadiazole-2-carboxylic acid-N,N-tetramethylene-amide]",2,14,4,20,4,20,100%,100%,,99%,100%,75%,99%,91%,% activity ([6]; 10 g active agent per 100 kg): 100%; % activity [8]: 100%; % activity ([12]; 10 g active agent per 100 kg): 98%; % activity ([12]; 20 g active agent per 100 kg): 100%
"CCCCNC(=O)c1nnc(S(C)(=O)=O)s1 [5-methylsulfonyl-1,3,4-thiadiazole-2-carboxylic acid-butylamide]",2,14,4,15,4,16,100%,100%,90%,99.1%,,76%,90%,83%,"% activity ([6]; 10 g active agent per 100 kg): 99.2%; % activity [8]: 99.3%; % activity [11, 16]: 94%; % activity [11, 17]: 99%"
"O=C1C2CC=CCC2C(=O)N1SC(Cl)(Cl)Cl (centres unmarked) [N-trichloromethylmercapto-tetrahydro-phthalimide, reference compound]",1,1,1,2,2,8,,,,,,,,,fungus development on the surface of the nutrient solution (0-5) ([1]; 0.002%): 4 (30 to 60% of the surface covered by the fungus turf); fungus development on the surface of the nutrient solution (0-5) ([1]; 0.004%): 4 (30 to 60% of the surface covered by the fungus turf); fungus development on the surface of the nutrient solution (0-5) ([2]; 0.002%): 4 (30 to 60% of the surface covered by the fungus turf); fungus development on the surface of the nutrient solution (0-5) ([2]; 0.004%): 4 (30 to 60% of the surface covered by the fungus turf); fungus development on the surface of the nutrient solution (0-5) ([3]; 0.002%): 4 (30 to 60% of the surface covered by the fungus turf); fungus development on the surface of the nutrient solution (0-5) ([3]; 0.004%): 4 (30 to 60% of the surface covered by the fungus turf)
"CCCCCCS(=O)(=O)c1nnc(C(N)=O)s1 [5-hexylsulfonyl-1,3,4-thiadiazole-2-carboxamide]",,,,,,,,98%,,,90%,87%,,,number of sound peas ([13]; 25 mg/l soil): 7; root evaluation (1-4) ([13]; 25 mg/l soil): 1; number of sound peas ([13]; 50 mg/l soil): 12; root evaluation (1-4) ([13]; 50 mg/l soil): 2; number of sound peas ([13]; 100 mg/l soil): 15; root evaluation (1-4) ([13]; 100 mg/l soil): 3
"CCC[S+]([O-])c1nnc(C(=O)NC(C)CC)s1 (centres unmarked) [5-propylsulfinyl-1,3,4-thiadiazole-2-carboxylic acid-sec.-butylamide]",,,,,,,100%,100%,,92%,92%,80%,94%,86%,number of sound peas ([13]; 25 mg/l soil): 9; root evaluation (1-4) ([13]; 25 mg/l soil): 1; number of sound peas ([13]; 50 mg/l soil): 17; root evaluation (1-4) ([13]; 50 mg/l soil): 4; number of sound peas ([13]; 100 mg/l soil): 17; root evaluation (1-4) ([13]; 100 mg/l soil): 4
"CCCCCCNC(=O)c1nnc(S(=O)(=O)CCC)s1 [5-propylsulfonyl-1,3,4-thiadiazole-2-carboxylic acid-hexylamide]",,,,,,,100%,100%,95%,98%,100%,78%,,88%,
